Experimental data from patent US11851421B2, “Near-infrared cyanine dyes and conjugates thereof” (BRACCO IMAGING S.P.A., priority 2020, dated 2023).

How the values were obtained:
[1] = Optical properties: excitation/emission maxima and absolute fluorescence quantum yield; format: physicochemical
Protocol: A dual-beam UV-VIS spectrophotometer (Lambda 40, Perkin Elmer) was used to determine the absorbance (Abs) of the compounds of the invention. Emission/excitation (Em/Ex) spectra and absolute fluorescence quantum yield (ϕ) measurements were carried out on a spectrofluorometer (FluoroLog-3 1IHR-320, Horiba Jobin Yvon) equipped with an F-3018 integrating sphere accessory. The measurements were performed using an excitation wavelength at maximum absorbance of different dyes, and the sample was excited with a 450 W Xenon Light Source. Detection was performed by photomultiplier tubes (PMT-NIR) cooled detector or by TBX-04 detector. Dye solutions were carefully prepared to have an absorbance lower than 0.1 (optical densities) to minimize re-absorption phenomena.
The compounds of the invention have been characterized in terms of their optical properties in vitro in aqueous medium (i.e., water/PBS pH 7.4) and in a clinical chemistry control serum (Seronorm, Sero SA), mimicking the chemical composition and optical properties of human serum. All dye or dye-conjugate solutions were freshly prepared. ICG and S0456 were used as commercial references.
In particular, the excitation and emission maxima and the absolute fluorescence quantum yield (Φ) of representative compounds of formula (I) and conjugates of formula (II) are shown in Table II.

[2] = biological target: T1, human serum albumin (HSA) (Homo sapiens, UniProt P02768); assay: Binding affinity to human serum albumin (absorbance peak shift or ultrafiltration method)
T1 construct: purchased Sigma Aldrich A9511
Protocol: An analysis of the binding affinity of the compounds of the invention to human albumin was carried out and the results compared with ICG and […] as a reference. Binding affinity to human serum albumin (HSA; Sigma Aldrich, A9511) was measured using two methods, according to the level of binding affinity of the compounds. The first method, optimal for compounds which strongly interact with HSA, is based on the analysis of the absorbance spectrum peak shift after the incubation of the dye in solutions containing HSA. […] The measure was performed at the maximum absorbance wavelength of the shifted peak. The second method, optimal for compound with low affinity for HSA, is based on measuring the variation of the absorbance of solutions containing the dye and various concentrations of HSA after ultrafiltration. […] In the first method, ΔA/b corresponds to the absorbance measured for each sample, whereas in the second method ΔA/b is obtained subtracting the absorbance of the control sample (dye without HSA) to the absorbance of each other sample.

[3] = Seronorm (clinical chemistry control serum)

T1 sequence (P02768 25-609): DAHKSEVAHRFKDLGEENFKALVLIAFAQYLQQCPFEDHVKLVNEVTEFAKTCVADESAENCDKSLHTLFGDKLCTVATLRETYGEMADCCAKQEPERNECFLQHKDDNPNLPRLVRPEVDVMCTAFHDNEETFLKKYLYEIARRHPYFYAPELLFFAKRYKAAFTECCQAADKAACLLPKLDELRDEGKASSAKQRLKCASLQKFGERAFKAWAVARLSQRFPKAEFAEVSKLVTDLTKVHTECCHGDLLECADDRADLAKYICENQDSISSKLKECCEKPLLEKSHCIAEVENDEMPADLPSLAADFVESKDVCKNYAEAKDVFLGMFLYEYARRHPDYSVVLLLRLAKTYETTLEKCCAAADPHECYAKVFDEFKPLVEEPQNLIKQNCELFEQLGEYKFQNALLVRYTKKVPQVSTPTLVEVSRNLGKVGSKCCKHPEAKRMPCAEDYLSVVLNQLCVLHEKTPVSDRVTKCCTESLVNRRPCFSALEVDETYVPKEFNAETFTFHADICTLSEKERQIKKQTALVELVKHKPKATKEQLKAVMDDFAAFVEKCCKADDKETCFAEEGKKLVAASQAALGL

With `CC1(C)C(/C=C/C2=C(Oc3ccccc3)C(=C/C=C3/N(CCCCS(=O)(=O)O)c4ccc(C(=O)NC(CO)CO)cc4C3(C)C)/CCC2)=[N+](CCCCS(=O)(=O)[O-])c2ccc(C(=O)NC(CO)CO)cc21` [Compound 19] the “Max Em (emission maximum)” value ([1]; PBS pH 7.4) was 805 nm, the “Max Ex (excitation maximum)” value ([1]; PBS pH 7.4) was 783 nm and the “Φ (absolute fluorescence quantum yield)” value ([1]; PBS pH 7.4) was 6.5%. For the same compound, the “Φ (absolute fluorescence quantum yield)” value [1, 3] was 10.9% and the Kd [2] was 35.3 µM.

In the case of `CC1(C)C(/C=C/C2=C(Oc3ccccc3)C(=C/C=C3/N(CCCCS(=O)(=O)O)c4ccc(C(=O)NC5C(O)C(O)C(O)C(O)C5O)cc4C3(C)C)/CCC2)=[N+](CCCCS(=O)(=O)[O-])c2ccc(C(=O)NC3C(O)C(O)C(O)C(O)C3O)cc21` (stereo not shown) [Compound 20], the “Max Em (emission maximum)” value ([1]; PBS pH 7.4) is reported as 801 nm, the “Max Ex (excitation maximum)” value ([1]; PBS pH 7.4) is reported as 780 nm and the “Φ (absolute fluorescence quantum yield)” value ([1]; PBS pH 7.4) is reported as 6.3%. For the same compound, the “Φ (absolute fluorescence quantum yield)” value [1, 3] was 7.7% and the Kd [2] was 72.5 µM.

For `CC1(C)C(/C=C/C2=C(c3ccccc3)C(=C/C=C3\N(CCCCCC(=O)NCCCCC4NC(=O)[C@@H](Cc5ccccc5)NC(=O)[C@H](CC(=O)O)NC(=O)CNC(=O)[C@H](CCCNC(=N)N)NC4=O)c4ccc(C(=O)NCC(O)C(O)C(O)C(O)CO)cc4C3(C)C)/CCC2)=[N+](CCCCS(=O)(=O)[O-])c2ccc(C(=O)NCC(O)C(O)C(O)C(O)CO)cc21` (stereo partly shown) [Compound 3], the “Max Em (emission maximum)” value ([1]; PBS pH 7.4) was 787 nm, the “Max Ex (excitation maximum)” value ([1]; PBS pH 7.4) was 771 nm and the “Φ (absolute fluorescence quantum yield)” value ([1]; PBS pH 7.4) was 6.4%. For the same compound, the “Φ (absolute fluorescence quantum yield)” value [1, 3] was 8.1%.

With `CC1(C)C(/C=C/C2=C(c3ccc(CCC(=O)O)cc3)C(=C/C=C3/N(CCCCS(=O)(=O)O)c4ccc(C(=O)NCC(O)C(O)C(O)C(O)CO)cc4C3(C)C)/CCC2)=[N+](CCCCS(=O)(=O)[O-])c2ccc(C(=O)NCC(O)C(O)C(O)C(O)CO)cc21` (stereo not shown) [Compound 11] the “Max Em (emission maximum)” value ([1]; PBS pH 7.4) was 786 nm, the “Max Ex (excitation maximum)” value ([1]; PBS pH 7.4) was 764 nm and the “Φ (absolute fluorescence quantum yield)” value ([1]; PBS pH 7.4) was 6.3%. For the same compound, the “Φ (absolute fluorescence quantum yield)” value [1, 3] was 11.5% and the Kd [2] was 154 µM.

With `CC1(C)C(/C=C/C2=C(c3ccccc3)C(=C/C=C3/N(CCCCS(=O)(=O)O)c4ccc(C(=O)NCC(O)C(O)C(O)C(O)CO)cc4C3(C)C)/CCC2)=[N+](CCCCS(=O)(=O)[O-])c2ccc(C(=O)NCC(O)C(O)C(O)C(O)CO)cc21` (stereo not shown) [Compound 17] the “Max Em (emission maximum)” value ([1]; PBS pH 7.4) was 788 nm, the “Max Ex (excitation maximum)” value ([1]; PBS pH 7.4) was 768 nm and the “Φ (absolute fluorescence quantum yield)” value ([1]; PBS pH 7.4) was 5.5%. The “Φ (absolute fluorescence quantum yield)” value [1, 3] was 11.8% and the Kd [2] was 81.6 µM.

With `CC1(C)C(/C=C/C2=C(c3ccccc3)C(=C/C=C3/N(CCCCC(=O)O)c4ccc(C(=O)NCC(O)C(O)C(O)C(O)CO)cc4C3(C)C)/CCC2)=[N+](CCCCS(=O)(=O)[O-])c2ccc(C(=O)NCC(O)C(O)C(O)C(O)CO)cc21` (stereo not shown) [Compound 22] the “Max Em (emission maximum)” value ([1]; PBS pH 7.4) was 803 nm, the “Max Ex (excitation maximum)” value ([1]; PBS pH 7.4) was 782 nm and the “Φ (absolute fluorescence quantum yield)” value ([1]; PBS pH 7.4) was 6.1%. For the same compound, the “Φ (absolute fluorescence quantum yield)” value [1, 3] was 9.8% and the Kd [2] was 120 µM.

`CC1(C)C(/C=C/C2=C(Oc3ccc(S(=O)(=O)O)cc3)C(=C/C=C3/N(CCCCCC(=O)O)c4ccc(C(=O)NCC(O)C(O)C(O)C(O)CO)cc4C3(C)C)/CCC2)=[N+](CCCCS(=O)(=O)[O-])c2ccc(C(=O)NCC(O)C(O)C(O)C(O)CO)cc21` (stereo not shown) [Compound 15] showed a Kd [2] of 11 µM.

With `CC1(C)C(/C=C/C2=C(Oc3ccccc3)C(=C/C=C3/N(CCCCS(=O)(=O)O)c4ccc(C(=O)NCC(O)CO)cc4C3(C)C)/CCC2)=[N+](CCCCS(=O)(=O)[O-])c2ccc(C(=O)NCC(O)CO)cc21` (stereo not shown) [Compound 18] the “Max Em (emission maximum)” value ([1]; PBS pH 7.4) was 804 nm, the “Max Ex (excitation maximum)” value ([1]; PBS pH 7.4) was 781 nm and the “Φ (absolute fluorescence quantum yield)” value ([1]; PBS pH 7.4) was 6.2%. The “Φ (absolute fluorescence quantum yield)” value [1, 3] was 10.5% and the Kd [2] was 68.5 µM.

In the case of `CC1(C)C(/C=C/C2=C(c3ccccc3)C(=C/C=C3/N(CCCCS(=O)(=O)O)c4ccc(C(=O)NC(CO)(CO)CO)cc4C3(C)C)/CCC2)=[N+](CCCCS(=O)(=O)[O-])c2ccc(C(=O)NC(CO)(CO)CO)cc21` [Compound 21], the “Max Em (emission maximum)” value ([1]; PBS pH 7.4) is reported as 790 nm, the “Max Ex (excitation maximum)” value ([1]; PBS pH 7.4) is reported as 769 nm and the “Φ (absolute fluorescence quantum yield)” value ([1]; PBS pH 7.4) is reported as 5.6%. For the same compound, the “Φ (absolute fluorescence quantum yield)” value [1, 3] was 12.8% and the Kd [2] was 30.9 µM.

With `CC1(C)C(/C=C/C2=C(Cl)C(=C/C=C3/N(CCCCS(=O)(=O)[O-])c4ccc(S(=O)(=O)[O-])cc4C3(C)C)/CCC2)=[N+](CCCCS(=O)(=O)[O-])c2ccc(S(=O)(=O)[O-])cc21.[Na+].[Na+].[Na+]` [Compound S0456, reference compound] the “Max Em (emission maximum)” value ([1]; PBS pH 7.4) was 803 nm, the “Max Ex (excitation maximum)” value ([1]; PBS pH 7.4) was 782 nm and the “Φ (absolute fluorescence quantum yield)” value ([1]; PBS pH 7.4) was 3.9%. For the same compound, the “Φ (absolute fluorescence quantum yield)” value [1, 3] was 7.7% and the “HSA affinity (KA)” value [2] was 350,000 M^−1.

For `CC1(C)C(/C=C/C=C/C=C/C=C2\N(CCCCS(=O)(=O)O)c3ccc4ccccc4c3C2(C)C)=[N+](CCCCS(=O)(=O)[O-])c2ccc3ccccc3c21` [ICG, Indocyanine green, reference compound], the “Max Em (emission maximum)” value ([1]; PBS pH 7.4) was 810 nm, the “Max Ex (excitation maximum)” value ([1]; PBS pH 7.4) was 780 nm and the “Φ (absolute fluorescence quantum yield)” value ([1]; PBS pH 7.4) was 1.5%. The “Φ (absolute fluorescence quantum yield)” value [1, 3] was 7.8%.
